Reference: publication PMC3899232, “Peptide Binding Properties of the Three PDZ Domains of Bazooka (Drosophila Par-3)” (PLoS ONE, 2014)
“And” between values parts separate entries of the source, which are not always exact repeats. Equal entries are not always repeated. Ends that are not written are not given here. Peptide text beside a SMILES is read from it. * marks the point of attachment. Biotin = O=C1N[C@H]2[C@H](CS[C@H]2CCCCC(=O)*)N1

Key:
GST-PDZ1 (Baz PDZ1) = GST-PDZ1 (Baz PDZ1) (Drosophila melanogaster, UniProt Q0KHR3); assay: SPR binding of peptides to immobilized GST-PDZ1 (Biacore 3000); details: for Kd: GST-PDZ1 immobilized on CM5 at 30 µg/ml in 10 mM sodium acetate pH 5.5, HBS-EP running buffer pH 7.4, 1:1 binding model with drifting baseline
Sequence of GST-PDZ1 (Baz PDZ1) (Q0KHR3 1-1520): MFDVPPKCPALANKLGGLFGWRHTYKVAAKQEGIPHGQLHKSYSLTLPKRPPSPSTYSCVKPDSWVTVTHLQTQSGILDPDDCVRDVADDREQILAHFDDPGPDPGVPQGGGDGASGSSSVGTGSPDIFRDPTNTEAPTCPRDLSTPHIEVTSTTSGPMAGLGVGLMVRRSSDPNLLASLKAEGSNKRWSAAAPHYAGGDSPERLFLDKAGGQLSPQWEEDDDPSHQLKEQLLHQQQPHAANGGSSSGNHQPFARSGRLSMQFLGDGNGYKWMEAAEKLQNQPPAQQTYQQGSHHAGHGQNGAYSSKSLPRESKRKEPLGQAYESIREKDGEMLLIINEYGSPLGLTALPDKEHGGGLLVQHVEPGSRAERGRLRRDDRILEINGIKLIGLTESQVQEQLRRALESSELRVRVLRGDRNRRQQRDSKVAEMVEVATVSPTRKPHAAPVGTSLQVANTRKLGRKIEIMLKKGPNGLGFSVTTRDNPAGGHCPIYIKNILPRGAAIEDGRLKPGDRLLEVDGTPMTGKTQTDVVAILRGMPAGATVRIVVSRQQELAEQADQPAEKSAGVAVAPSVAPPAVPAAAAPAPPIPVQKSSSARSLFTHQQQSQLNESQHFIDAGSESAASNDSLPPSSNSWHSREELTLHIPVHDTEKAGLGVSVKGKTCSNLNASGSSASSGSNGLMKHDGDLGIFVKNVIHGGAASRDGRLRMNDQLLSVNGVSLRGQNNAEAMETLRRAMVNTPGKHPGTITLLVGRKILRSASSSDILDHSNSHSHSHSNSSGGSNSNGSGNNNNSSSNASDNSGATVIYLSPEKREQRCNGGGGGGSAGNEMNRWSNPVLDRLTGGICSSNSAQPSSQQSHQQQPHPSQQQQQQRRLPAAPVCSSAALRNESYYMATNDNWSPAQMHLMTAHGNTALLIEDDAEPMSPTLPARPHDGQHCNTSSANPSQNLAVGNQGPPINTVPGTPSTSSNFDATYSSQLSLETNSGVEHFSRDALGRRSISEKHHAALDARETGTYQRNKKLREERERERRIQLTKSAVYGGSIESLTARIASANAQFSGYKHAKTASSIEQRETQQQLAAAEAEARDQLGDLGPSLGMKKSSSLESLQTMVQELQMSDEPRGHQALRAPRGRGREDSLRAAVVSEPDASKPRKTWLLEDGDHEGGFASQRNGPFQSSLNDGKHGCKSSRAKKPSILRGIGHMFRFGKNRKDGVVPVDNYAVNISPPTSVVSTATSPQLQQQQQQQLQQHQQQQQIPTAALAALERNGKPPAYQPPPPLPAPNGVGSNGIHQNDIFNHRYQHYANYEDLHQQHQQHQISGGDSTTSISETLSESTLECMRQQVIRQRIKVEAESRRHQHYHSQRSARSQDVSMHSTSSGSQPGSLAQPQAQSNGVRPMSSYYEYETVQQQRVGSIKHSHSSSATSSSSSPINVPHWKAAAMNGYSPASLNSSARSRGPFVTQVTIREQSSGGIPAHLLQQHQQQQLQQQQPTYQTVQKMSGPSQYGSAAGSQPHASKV
Procedure: (§1) To test the binding of purified peptides to the PDZ domain GST fusion proteins, we acquired one peptide for each PDZ domain corresponding to single peptides identified by phage display (Fig. 3A). We separately immobilized PDZ domain GST fusion proteins on solid supports and analyzed peptide binding by surface plasmon resonance (SPR).
(§2) Binding experiments were conducted with a Biacore 3000 biosensor (GE Healthcare, USA), as described. Specifically, the GST fusion proteins of each PDZ domain alone or of the PDZ domains in tandem were immobilized on CM5 chips (GE Healthcare) at a concentration of 30 µg/ml in 10 mM sodium acetate (pH 5.5) for PDZ1, PDZ3 and PDZ1-3, and in 10 mM HEPES (pH 7.0) for PDZ2. The peptides for SPR were biotinylated but otherwise identical to those indentified by phage display (Peptide 1, Biotin-SAPGGGLRIVNGLWIF; Peptide 2, Biotin-SAPGGGDREWWV; Peptide 3, Biotin-SAPGGGRVLWFDLGIF; synthesized by Sheldon Biotechnology Centre, McGill University, Canada). All peptides were solubilized in HBS-EP running buffer (10 mM Hepes pH 7.4, 150 mM NaCl, 3 mM EDTA, 0.005% Surfactant P20) and were flowed over the immobilized proteins in this buffer. For Peptide 1 and Peptide 3, KD values were determined with a 1∶1 binding model with drifting baseline. For Peptide 2, KD values were determined with a steady state model.

[1] = biological target: GST-PDZ1-3 (Baz PDZ domains in tandem) (Drosophila melanogaster, UniProt Q0KHR3); assay: SPR binding of peptides to immobilized tandem GST-PDZ1-3 (Biacore 3000); details: for KD values of GST-PDZ1-3 compared with single GST-PDZ domains (in words): SPR, HBS-EP pH 7.4, tandem versus single PDZ domain alone; for Kd: tandem GST-PDZ1-3 immobilized on CM5 at 30 µg/ml in 10 mM sodium acetate pH 5.5, HBS-EP running buffer pH 7.4
Sequence of GST-PDZ1-3 (Baz PDZ domains in tandem) (Q0KHR3 1-1520): as above
From the text: With the binding strengths of individual PDZ domain-peptide interactions quantified, we next investigated whether the natural tandem arrangement of the PDZ domains affects their peptide binding. For these experiments, we purfied GST-PDZ1-3 and confirmed its stability by SDS-PAGE (Fig. 2B). To test the binding properties of the individual PDZ domains within the tandem, we separately probed GST-PDZ1-3 with Peptides 1, 2 and 3. […] To assess binding quantitatively, we determined the KD values of GST-PDZ1-3 binding to each peptide. […] Thus, the peptide binding pockets of each PDZ domain appear to be unaffected by tandem organization of the PDZ domains.
as §2

GST-PDZ2 (Baz PDZ2) = GST-PDZ2 (Baz PDZ2) (Drosophila melanogaster, UniProt Q0KHR3); assay: SPR binding of peptides to immobilized GST-PDZ2 (Biacore 3000); details: for Kd: GST-PDZ2 immobilized on CM5 at 30 µg/ml in 10 mM HEPES pH 7.0, HBS-EP running buffer pH 7.4, steady state model
Sequence of GST-PDZ2 (Baz PDZ2) (Q0KHR3 1-1520): as above
Procedure: as §1, §2

GST-PDZ3 (Baz PDZ3) = GST-PDZ3 (Baz PDZ3) (Drosophila melanogaster, UniProt Q0KHR3); assay: SPR binding of peptides to immobilized GST-PDZ3 (Biacore 3000); details: for Kd: GST-PDZ3 immobilized on CM5 at 30 µg/ml in 10 mM sodium acetate pH 5.5, HBS-EP running buffer pH 7.4, 1:1 binding model with drifting baseline
Sequence of GST-PDZ3 (Baz PDZ3) (Q0KHR3 1-1520): as above
Procedure: as §1, §2

[2] = biological target: GST-Baz PDZ1-3 (fusion protein containing all three PDZ domains and their normal linker regions) (Drosophila); assay: SPR; Biacore 3000; GST fusion protein immobilised on CM5 chip (30 µg/ml; PDZ2 in 10 mM HEPES pH 7.0, PDZ1-3 in 10 mM sodium acetate pH 5.5); Peptide 2 flowed in HBS-EP (10 mM Hepes pH 7.4, 150 mM NaCl, 3 mM EDTA, 0.005% Surfactant P20); steady state model
[3] = biological target: GST-PDZ2 (GST fusion protein of Baz PDZ2) (Drosophila); assay: as above
[4] = biological target: GST-Baz PDZ1-3 (fusion protein containing all three PDZ domains and their normal linker regions) (Drosophila); assay: SPR; Biacore 3000; GST fusion protein immobilised on CM5 chip (30 µg/ml in 10 mM sodium acetate pH 5.5); Peptide 1 or Peptide 3 flowed in HBS-EP (10 mM Hepes pH 7.4, 150 mM NaCl, 3 mM EDTA, 0.005% Surfactant P20); 1:1 binding model with drifting baseline
[5] = biological target: GST-PDZ3 (GST fusion protein of Baz PDZ3) (Drosophila); assay: as above
[6] = biological target: GST-PDZ1 (GST fusion protein of Baz PDZ1) (Drosophila); assay: as above
[7] = replicate 1 (separately purified proteins, separately prepared peptides)
[8] = replicate 2 (separately purified proteins, separately prepared peptides)
[9] = replicate 1 (separately purified proteins, separately prepared peptides), Peptides 1 and 3: 1:1 binding model with drifting baseline
[10] = replicate 2 (separately purified proteins, separately prepared peptides), Peptides 1 and 3: 1:1 binding model with drifting baseline

Molecule: CC[C@H](C)[C@H](NC(=O)[C@H](Cc1c[nH]c2ccccc12)NC(=O)[C@H](CC(C)C)NC(=O)CNC(=O)[C@H](CC(N)=O)NC(=O)[C@@H](NC(=O)[C@@H](NC(=O)[C@H](CCCNC(=N)N)NC(=O)[C@H](CC(C)C)NC(=O)CNC(=O)CNC(=O)CNC(=O)[C@@H]1CCCN1C(=O)[C@H](C)NC(=O)[C@H](CO)NC(=O)CCCC[C@@H]1SC[C@@H]2NC(=O)N[C@@H]21)[C@@H](C)CC)C(C)C)C(=O)N[C@@H](Cc1ccccc1)C(=O)O [Peptide 1, Biotin-SAPGGGLRIVNGLWIF] (Biotin-SAPGGGLRIVNGLWIF-OH)
- KD values (in words) (GST-PDZ1 (Baz PDZ1); SPR, HBS-EP pH 7.4, GST-PDZ1, summary of Table 1): in the nM range
- Kd (GST-PDZ1 (Baz PDZ1); [7]): 164 nM
- Kd (GST-PDZ1 (Baz PDZ1); [8]): 186 nM
- KD values of GST-PDZ1-3 compared with single GST-PDZ domains (in words) [1]: very close to those of each GST-PDZ domain alone
- Kd [1, 9]: 263 nM
- Kd [1, 10]: 245 nM

Molecule: CC(C)[C@H](NC(=O)[C@H](Cc1c[nH]c2ccccc12)NC(=O)[C@H](Cc1c[nH]c2ccccc12)NC(=O)[C@H](CCC(=O)O)NC(=O)[C@H](CCCNC(=N)N)NC(=O)[C@H](CC(=O)O)NC(=O)CNC(=O)CNC(=O)CNC(=O)[C@@H]1CCCN1C(=O)[C@H](C)NC(=O)[C@H](CO)NC(=O)CCCC[C@@H]1SC[C@@H]2NC(=O)N[C@@H]21)C(=O)O [Peptide 2, Biotin-SAPGGGDREWWV] (Biotin-SAPGGGDREWWV-OH)
- KD values (in words) (GST-PDZ2 (Baz PDZ2); SPR, HBS-EP pH 7.4, GST-PDZ2, summary of Table 1): in the µM range
- Kd (GST-PDZ2 (Baz PDZ2); [7]): 17700 nM
- Kd (GST-PDZ2 (Baz PDZ2); [8]): 13000 nM
- KD values of GST-PDZ1-3 compared with single GST-PDZ domains (in words) [1]: very close to those of each GST-PDZ domain alone
- Kd ([1]; replicate 1 (separately purified proteins, separately prepared peptides), Peptide 2: steady state model): 9130 nM
- Kd ([1]; replicate 2 (separately purified proteins, separately prepared peptides), Peptide 2: steady state model): 9980 nM

Molecule: CC[C@H](C)[C@H](NC(=O)CNC(=O)[C@H](CC(C)C)NC(=O)[C@H](CC(=O)O)NC(=O)[C@H](Cc1ccccc1)NC(=O)[C@H](Cc1c[nH]c2ccccc12)NC(=O)[C@H](CC(C)C)NC(=O)[C@@H](NC(=O)[C@H](CCCNC(=N)N)NC(=O)CNC(=O)CNC(=O)CNC(=O)[C@@H]1CCCN1C(=O)[C@H](C)NC(=O)[C@H](CO)NC(=O)CCCC[C@@H]1SC[C@@H]2NC(=O)N[C@@H]21)C(C)C)C(=O)N[C@@H](Cc1ccccc1)C(=O)O [Peptide 3, Biotin-SAPGGGRVLWFDLGIF] (Biotin-SAPGGGRVLWFDLGIF-OH)
- KD values (in words) (GST-PDZ3 (Baz PDZ3); SPR, HBS-EP pH 7.4, GST-PDZ3, summary of Table 1): in the nM range
- Kd (GST-PDZ3 (Baz PDZ3); [7]): 45.9 nM
- Kd (GST-PDZ3 (Baz PDZ3); [8]): 25.2 nM
- KD values of GST-PDZ1-3 compared with single GST-PDZ domains (in words) [1]: very close to those of each GST-PDZ domain alone
- Kd [1, 9]: 49.4 nM
- Kd [1, 10]: 32.6 nM

Molecule: Biotin-SAPGGGDREWWV [Peptide 2 (Biotin-…)]
- Kd [2]: 9130 nM and 9980 nM
- Kd [3]: 17700 nM and 13000 nM

Molecule: Biotin-SAPGGGRVLWFDLGIF [Peptide 3 (Biotin-…)]
- Kd [4]: 49.4 nM and 32.6 nM
- Kd [5]: 25.2 nM and 45.9 nM

Molecule: Biotin-SAPGGGLRIVNGLWIF [Peptide 1 (Biotin-…)]
- Kd [4]: 263 nM and 245 nM
- Kd [6]: 164 nM and 186 nM
